Source: patent US20240327359A1, “3-ISOXAZOLIDINONE COMPOUND, PREPARATION METHOD, HERBICIDAL COMPOSITION AND APPLICATION THEREOF” (QINGDAO KINGAGROOT CHEMICAL COMPOUND CO., LTD., priority 2021, published 2024)

What was measured:
Format in all cases: in vivo
Abutilon theophrasti = test: Weeding effect in post-emergence stage; conditions: 720 g a.i./ha, 3 weeks after application
Text: (§1) The activity level criteria for plant damage (i.e., growth control rate) are as follows:
(§2) The above growth control rates are fresh weight control rates.
(§3) Monocotyledonous and dicotyledonous weed seeds (Descurainia sophia, Capsella bursa-pastoris, Abutilon theophrasti, Galium aparine, Stellaria media, Lithospermum arvense, Rorippa indica, Alopecurus aequalis, Alopecurus japonicus, Eleusine indica, Beckmannia syzigachne, Sclerochloa dura, Phleum paniculatum, Veronica didyma, Bromus japonicus, Aegilops tauschii, Phalaris arundinacea, Amaranthus retroflexus, Chenopodiaceae, Commelina communis, Sonchus arvensis, Convolvulus arvensis, Cirsium setosum, Solanumnigrum, Acalypha australis, Digitaria sanguinalis, Echinochloa crusgalli, Setaria viridis, Setaria glauca, Leptochloa chinensis, Monochoria vaginalis, Sagittaria trifolia, Scirpus juncoides, Cyperus rotundus, Cyperus iria, Cyperus difformis, Fimbristylis, Portulaca oleracea, Xanthium sibiricum, Pharbitis nil, Conyza Canadensis, etc.) and major crop seeds (wheat, corn, rice, soybean, cotton, oilseed rape, millet, sorghum, potato, sesame, ricinus, etc.) were placed in plastic pots filled with soil, then covered with 0.5-2 cm of soil, allowed to grow in a good greenhouse environment. Two weeks after sowing, the test plants were treated in the 2-3 leaf stage. The tested compounds of the present invention were respectively dissolved in acetone, then added with Tween 80 and 1.5 liter/ha of emulsifiable concentrate of methyl oleate as synergist, diluted with a certain amount of water to obtain a solution of a certain concentration, and sprayed by a spray tower onto the plants. After the application, the plants were cultured for 3 weeks in the greenhouse, and then the experimental results of the weeding were recorded. The doses of the used compounds were 45, 90, 180, 360, 720 g a.i./ha, and the averages were obtained from three replicates.

Alopecurus japonicus = test: Weeding effect in post-emergence stage; conditions: 720 g a.i./ha, 3 weeks after application
Text: as §1, §2, §3

Digitaria sanguinalis = test: Weeding effect in post-emergence stage; conditions: 720 g a.i./ha, 3 weeks after application
Text: as §1, §2, §3

Leptochloa chinensis [1] = test: Weeding effect in post-emergence stage; conditions: 720 g a.i./ha, 3 weeks after application
Text: as §1, §2, §3

rice [2] = test: Post-emergence stage, crop damage; conditions: 720 g a.i./ha, 3 weeks after application
Text: as §1, §2, §3

wheat [3] = test: Post-emergence stage, crop damage; conditions: 720 g a.i./ha, 3 weeks after application
Text: as §1, §2, §3

corn = test: Pre-emergence stage, crop damage; conditions: 24 g a.i./mu, 2 weeks
Text: as §1, §2
(§4) Monocotyledonous and dicotyledonous weed seeds (Descurainia sophia, Capsella bursa-pastoris, Abutilon theophrasti, Galium aparine, Stellaria media, Lithospermum arvense, Rorippa indica, Alopecurus aequalis, Alopecurus japonicus, Eleusine indica, Beckmannia syzigachne, Sclerochloa dura, Phleum paniculatum, Veronica didyma, Bromus japonicus, Aegilops tauschii, Phalaris arundinacea, Amaranthus retroflexus, Chenopodiaceae, Commelina communis, Sonchus arvensis, Convolvulus arvensis, Cirsium setosum, Solanumnigrum, Acalypha australis, Digitaria sanguinalis, Echinochloa crusgalli, Setaria viridis, Setaria glauca, Leptochloa chinensis, Monochoria vaginalis, Sagittaria trifolia, Scirpus juncoides, Cyperus rotundus, Cyperus iria, Cyperus difformis, Fimbristylis, Portulaca oleracea, Xanthium sibiricum, Pharbitis nil, Conyza Canadensis, etc.) and major crop seeds (wheat, corn, rice, soybean, cotton, oilseed rape, millet, sorghum, potato, sesame, ricinus, etc.) were placed in plastic pots filled with soil, then covered with 0.5-2 cm of soil, allowed to grow in a good greenhouse environment. The test plants were treated on the day of sowing. The tested compounds of the present invention were respectively dissolved in acetone, then added with Tween 80, diluted with a certain amount of water to obtain a solution of a certain concentration, and sprayed by a spray tower onto the plants. After the application, the plants were cultured for 2 weeks in the greenhouse, and then the experimental results of the weeding were recorded. The doses of the used compounds were 3, 6, 12, 24, 48 g ai./mu (1 mu=1/15 ha), and the averages were obtained from three replicates.

cotton = test: Pre-emergence stage, crop damage; conditions: 2 weeks
Text: as §1, §2, §4

peanut = test: Pre-emergence stage, crop damage; conditions: 48 g a.i./mu, 2 weeks
Text: as §1, §2, §4

rice [4] = test: Pre-emergence stage, crop damage; conditions: 2 weeks
Text: as §1, §2, §4

soy bean = test: Pre-emergence stage, crop damage; conditions: 2 weeks
Text: as §1, §2, §4

wheat [5] = test: Pre-emergence stage, crop damage; conditions: 2 weeks
Text: as §1, §2, §4

Descurainia sophia = test: Weeding effect in pre-emergence stage; conditions: 2 weeks
Text: as §1, §2, §4

Echinochloa crusgalli = test: Weeding effect in pre-emergence stage; conditions: 2 weeks
Text: as §1, §2, §4

Leptochloa chinensis [6] = test: Weeding effect in pre-emergence stage; conditions: 2 weeks
Text: as §1, §2, §4

Lolium perenne = test: Weeding effect in pre-emergence stage; conditions: 2 weeks
Text: as §1, §2, §4

Veronica didyma = test: Weeding effect in pre-emergence stage; conditions: 2 weeks
Text: as §1, §2, §4

weeds = test: Activity test of the compositions, soil sealing treatment; conditions: read-out: Control effect (%) of B applied alone (B)
Outline: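 Pre-emergence soil spray at 450 kg/ha, 0.3 MPa, applied 72 h after sowing pre-germinated seeds, 20 seeds per pot, 4 pots, 4 repeats; actives in acetone diluted with 0.10% Tween-80. Greenhouse, 20 to 30° C; surviving weed fresh weight measured 21 days after treatment.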

[7] = system: Echinochloa crusgalli, Scirpus juncoides, Bidens tripartita L., Sagittaria trifolia; test: Tests on resistance of the collected weeds to pyrazosulfuron-ethyl; conditions: regular doses; weed seeds collected from Heilongjiang Province of China
Text: Note: The seeds of Echinochloa crusgalli, Scirpus juncoides and Bidens tripartita L., and Sagittaria trifolia were collected from Heilongjiang Province of China.

`CC1(C)CON(Cc2ccc(Cl)cc2Cl)C1=O` [Control compound A, bixlozone] was tested, and the “weeding effect in post-emergence stage, activity level (growth control rate)” value (“weeding effect in post-emergence stage” below) (Abutilon theophrasti) was 4 (Level 4: growth control rate is greater than or equal to 60% and less than 85%), the “weeding effect in post-emergence stage” value (Alopecurus japonicus) was 3 (Level 3: growth control rate is greater than or equal to 40% and less than 60%) and the “weeding effect in post-emergence stage” value (Digitaria sanguinalis) was 3 (Level 3: growth control rate is greater than or equal to 40% and less than 60%). For the same compound, the “weeding effect in post-emergence stage” value (Leptochloa chinensis [1]) was 2 (Level 2: growth control rate is greater than or equal to 20% and less than 40%), the “plant damage level (growth control rate) on crop, post-emergence stage” value (rice [2]) was 2 (Level 2: growth control rate is greater than or equal to 20% and less than 40%) and the “plant damage level (growth control rate) on crop, post-emergence stage” value (wheat [3]) was 3 (Level 3: growth control rate is greater than or equal to 40% and less than 60%). For the same compound, the “plant damage level (growth control rate) on crop, pre-emergence stage” value (shortened to “plant damage level … pre-emergence stage”) (corn) was 2 (Level 2: growth control rate is greater than or equal to 15% and less than 30%), the “plant damage level … pre-emergence stage” value (cotton; 12 g a.i./mu) was 1 (Level 1: growth control rate is greater than 0% and less than 15%) and the “plant damage level … pre-emergence stage” value (cotton; 24 g a.i./mu) was 2 (Level 2: growth control rate is greater than or equal to 15% and less than 30%). For the same compound, the “plant damage level … pre-emergence stage” value (peanut) was 1 (Level 1: growth control rate is greater than 0% and less than 15%), the “plant damage level … pre-emergence stage” value (rice [4]; 6 g a.i./mu) was 1 (Level 1: growth control rate is greater than 0% and less than 15%) and the “plant damage level … pre-emergence stage” value (rice [4]; 12 g a.i./mu) was 2 (Level 2: growth control rate is greater than or equal to 15% and less than 30%). The “plant damage level … pre-emergence stage” value (rice [4]; 24 g a.i./mu) was 4 (Level 4: growth control rate is greater than or equal to 40% and less than 50%), the “plant damage level … pre-emergence stage” value (soy bean; 24 g a.i./mu) was 1 (Level 1: growth control rate is greater than 0% and less than 15%) and the “plant damage level … pre-emergence stage” value (soy bean; 48 g a.i./mu) was 2 (Level 2: growth control rate is greater than or equal to 15% and less than 30%). For the same compound, the “plant damage level … pre-emergence stage” value (wheat [5]; 6 g a.i./mu) was 1 (Level 1: growth control rate is greater than 0% and less than 15%), the “plant damage level … pre-emergence stage” value (wheat [5]; 12 g a.i./mu) was 1 (Level 1: growth control rate is greater than 0% and less than 15%) and the “plant damage level … pre-emergence stage” value (wheat [5]; 24 g a.i./mu) was 2 (Level 2: growth control rate is greater than or equal to 15% and less than 30%). The “weeding effect in pre-emergence stage, activity level (growth control rate)” value (from here on “weeding effect in pre-emergence stage”) (Descurainia sophia; 3 g a.i./mu) was 4 (Level 4: growth control rate is greater than or equal to 40% and less than 50%), the “weeding effect in pre-emergence stage” value (Descurainia sophia; 6 g a.i./mu) was 4 (Level 4: growth control rate is greater than or equal to 40% and less than 50%) and the “weeding effect in pre-emergence stage” value (Descurainia sophia; 12 g a.i./mu) was 9. The “weeding effect in pre-emergence stage” value (Descurainia sophia; 24 g a.i./mu) was 9, the “weeding effect in pre-emergence stage” value (Echinochloa crusgalli; 3 g a.i./mu) was 7 (Level 7: growth control rate is greater than or equal to 70% and less than 80%) and the “weeding effect in pre-emergence stage” value (Echinochloa crusgalli; 6 g a.i./mu) was 9. The “weeding effect in pre-emergence stage” value (Echinochloa crusgalli; 12 g a.i./mu) was 9, the “weeding effect in pre-emergence stage” value (Echinochloa crusgalli; 24 g a.i./mu) was 9 and the “weeding effect in pre-emergence stage” value (Leptochloa chinensis [6]; 3 g a.i./mu) was 6 (Level 6: growth control rate is greater than or equal to 60% and less than 70%). The “weeding effect in pre-emergence stage” value (Leptochloa chinensis [6]; 6 g a.i./mu) was 9, the “weeding effect in pre-emergence stage” value (Leptochloa chinensis [6]; 12 g a.i./mu) was 9 and the “weeding effect in pre-emergence stage” value (Leptochloa chinensis [6]; 24 g a.i./mu) was 9. The “weeding effect in pre-emergence stage” value (Lolium perenne; 6 g a.i./mu) was 2 (Level 2: growth control rate is greater than or equal to 15% and less than 30%), the “weeding effect in pre-emergence stage” value (Lolium perenne; 24 g a.i./mu) was 9 and the “weeding effect in pre-emergence stage” value (Veronica didyma; 6 g a.i./mu) was 8 (Level 8: growth control rate is greater than or equal to 80% and less than 100%). The “weeding effect in pre-emergence stage” value (Veronica didyma; 12 g a.i./mu) was 9, the “weeding effect in pre-emergence stage” value (Veronica didyma; 24 g a.i./mu) was 9 and the pest or weed control at 30 g/ha (weeds; Echinochloa crus-galli, 504 h, Echinochloa crusgalli, soil treatment (S), B at 2 g a.i./mu, 21 days) was 41.3%. It also gave a pest or weed control at 60 g/ha (weeds; Echinochloa crus-galli, 504 h, Echinochloa crusgalli, soil treatment (S), B at 4 g a.i./mu, 21 days) of 50.3%.
For `CCOC(=O)c1cnn(C)c1S(=O)(=O)NC(=O)Nc1nc(OC)cc(OC)n1` [pyrazosulfuron-ethyl, reference compound], the pest or weed control at 3.75 g/ha (weeds; Cyperus difformis, soil (S), B 0.25 g a.i./mu) was 44.8%, the pest or weed control at 7.5 g/ha (weeds; Cyperus difformis, soil (S), B 0.5 g a.i./mu) was 59.7% and the “response of the collected weeds to pyrazosulfuron-ethyl” value [7] was “resistant”.
